Measurements taken from article PMC6494078, “Development of an HPLC-based guanosine monophosphate kinase assay and application to Plasmodium vivax guanylate kinase” (Analytical Biochemistry, 2019).

Assays:
Format in all cases: biochemical
[1] = target: T1, Plasmodium vivax guanylate kinase (PvGK) (Plasmodium vivax, UniProt A5K709); experiment: HPLC guanylate kinase inhibition assay, percent inhibition at […]; details: read-out: % inhibition at 5 mM
T1 construct: gene PVX_099895; full-length PvGK with an N-terminal hexa-histidine tag
T1 sequence (A5K709 entry or part of it): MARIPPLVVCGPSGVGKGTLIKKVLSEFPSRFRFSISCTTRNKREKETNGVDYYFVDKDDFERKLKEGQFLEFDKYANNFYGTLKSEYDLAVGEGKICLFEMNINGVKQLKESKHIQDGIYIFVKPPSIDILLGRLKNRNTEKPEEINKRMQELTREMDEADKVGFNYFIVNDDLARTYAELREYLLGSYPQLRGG

[2] = target: T1, Plasmodium vivax guanylate kinase (PvGK); experiment: HPLC detection of product formed by purified enzyme
[3] = target: T1, Plasmodium vivax guanylate kinase (PvGK); experiment: HPLC guanylate kinase inhibition assay, IC50 curve
[4] = target: T1, Plasmodium vivax guanylate kinase (PvGK); experiment: HPLC guanylate kinase assay, ATP saturation curve (sigmoidal, h = […]; apparent Kprime)
[5] = target: T1, Plasmodium vivax guanylate kinase (PvGK); experiment: HPLC guanylate kinase assay, GMP saturation curve (substrate inhibition)

O=c1ccc2ccc(O)c(O)c2o1 [compound 1, 7,8-dihydroxycoumarin] was tested, and the inhibition at 5000 µM [1] was 68%.

Nc1nc2c(ncn2[C@@H]2O[C@H](COP(=O)(O)OP(=O)(O)O)[C@@H](O)[C@H]2O)c(=O)[nH]1 [GDP] was tested, and the “HPLC detection of product formed by purified enzyme” value [2] was “used to study the kinetics of the forward reaction (forming ADP and GDP) catalyzed by PvGK”.

Work on O=C(O)C1CSC2(C(=O)O)CCC(=O)N12 (centres unmarked) [compound 2, Compound 2] yielded an IC50 [3] of 2700 µM.

Nc1ncnc2c1ncn2[C@@H]1O[C@H](COP(=O)(O)OP(=O)(O)OP(=O)(O)O)[C@@H](O)[C@H]1O [ATP] was tested, and the Km [4] was 15.6 ± 2.07 µM.

For Nc1nc(=O)c2ncn([C@@H]3O[C@H](COP(=O)(O)O)[C@@H](O)[C@H]3O)c2[nH]1 [GMP], the “HPLC guanylate kinase assay, GMP saturation curve (substrate inhibition)” value [5] was “showed a decrease in initial velocity with increasing GMP concentrations, indicating strong substrate inhibition”.
